How the values were obtained:
[1] = Ionisation classification at pH 6.5 from pKa; format: physicochemical; settings: predominant species (> 50%) at pH 6.5 from measured or calculated pKa
Text: (§1) The pKa values associated with ionisable centres identified within a given drug were used to calculate the fraction of drug ionised at pH 6.5. Drugs were then classified into groups as follows: drugs with > 50% unionised at pH 6.5 were classified as “Neutral”; drugs with > 50% ionised as mono −/di −/tri-protic acids or bases were classified as “Acid” or “Base”, respectively; “Zwitterions” were classified as drugs with > 50% ionised, with the major ionised species having no net charge; all other drugs were classified as amphoteric. […] LogD6.5 for neutral, amphoteric and zwitterion drugs were assumed to be equal to LogD7.4.

[2] = LogD7.4 octanol-buffer, shake-flask (or ACD / BioByte); settings: octanol/buffer, pH 7.4
Text: as §1

[3] = Observed clearance ratio and fraction reabsorbed (Freab, Freab′) calculated from CLR, fu,p and GFR; settings: for Apparent Freab / Apparent Freab’: calculated from observed CLR, fu,p and GFR; for Freab: observed/apparent, 1 - CLR/(GFR x fu,p), GFR 120 mL/min
Description: The clearance ratio was calculated from clinical data using Eqs. […] For the remaining drugs the fraction reabsorbed (Freab) was calculated using Eq.
GFR values for healthy subjects may vary as a result of biological as well as inter-individual variation and also the method of measurement. […] Individual GFR values for subjects in clinical trials databases were generally not available.
In the proposed model, the nephron is represented as five compartments, namely the glomerulus and four tubular regions, as depicted in Fig. 1. The tubular compartments in the model, listed in anatomical order starting from the glomerulus are: the proximal tubule (PT), the loop of Henle (LoH), the distal tubule (DT) and the collecting duct (CD). […] The relationship between Freab′ and Freab is shown in Eq. (11). The predicted overall Freab′ was calculated from the predicted Freab′ in each (i) tubular region (Freab,i′), as shown in Eq. (12).

[4] = pKa, potentiometric AstraZeneca in-house assay (or ACD / BioByte); settings: measured, potentiometric
Text: as §1

[5] = cited from earlier work; for CLR: healthy adult subjects, overall weighted mean of literature values, absolute (not normalised), ref Supplementary Results Table S2.1; for Overall weighted mean CLR: healthy subjects, plasma and urine data from same subjects, normalised for subject weight and body surface area where necessary; for Overall weighted mean CLR / CLR Observed: ref Table S2.1; for CLR Observed: overall weighted mean of values obtained from a literature survey
[6] = Papp-Freab′ calibration of Caco-2 Papp with reference drugs and CLR prediction; parameters: species or system human; settings: reference drugs; calibrated Caco-2 Papp after Hill equation fitting
Text: To account for this and to allow the Caco-2 data in the present study to be transferable to other assay formats/laboratories, a Papp–Freab′ calibration method was explored by splitting the available Papp and Freab′ data into ‘reference’ and internal ‘validation’ subsets. […] The calibration approach is proposed as a pragmatic method to account for inter-assay/inter-laboratory differences; herein it is applied to the current dataset only, and not external data as intended for future studies.
In order to evaluate the application of Papp–Freab′ calibration (Eq. (17)), 11 drugs were selected as reference ‘calibrator’ drugs (Papp,ref) covering a representative range of Freab′ and Papp values (Table 5). The remaining 34 drugs were treated as an internal ‘validation’ set.

Caco-2 cell monolayers = assay: Caco-2 apparent permeability (Papp), apical to basolateral, pH 6.5-7.4 gradient, efflux inhibitor cocktail; settings: Caco-2, apical to basolateral, pH 6.5 to 7.4, efflux inhibitor cocktail, 2 h
Description: (§2) The assay was performed using the apical to basolateral pH gradient format of pH 6.5 to pH 7.4. […] The efflux transporter inhibitor cocktail was used to minimise the effect of efflux transporters expressed in Caco-2 cells (e.g. P-glycoprotein, BCRP and MRP2) on the estimate of apical to basolateral Papp of substrates for such transporters.

[7] = as above; settings: human, Caco-2, pH 6.5
Description: as §2

[8] = parameters: method as in Hammarlund et al., 1985; Swärd et al., 2005; settings: healthy subjects or cardiac surgery patients, well hydrated; ref Hammarlund et al., 1985; Swärd et al., 2005; cited from earlier work
in vitro = settings: human, Caco-2, pH 6.5
Description: as §2

[9] = LogD6.5 estimated from LogD7.4 and pKa; settings: octanol/buffer, pH 6.5
Text: as §1

Row | SMILES | Ionisation at pH 6.5 [1] | logD [2] | Apparent Freab [3] | Apparent Freab’ [3] | Freab [3] | pKa ([4]; pKa (base)) | CLR [5] [mL/min] | Overall weighted mean CLR [5] [mL/min] | CLR Observed [5] [mL/min] | Papp,ref,calibrated [6] | Papp (Caco-2 cell monolayers) | Papp A→B at 2 h [7] [×10⁻⁶ cm/s] | increase in urine flow compared to control conditions [8] | Papp A→B (in vitro) [×10⁻⁶ cm/s] | pKa ([4]; pKa (acid)) | logD [9]
1 | C=CCOc1ccccc1OCC(O)CNC(C)C (centres unmarked) [Oxprenolol] | Base | 0.23 | 0.443 | 0.447 | 0.44 | 9.6 | 9.35 | 9.4 | 9.35 | 12.00 × 10^− 6 cm/s | 29.95 × 10^− 6 cm/s | 30 | – | – | – | –
2 | Cc1cccc(C)c1NC(=O)C(C)N (centres unmarked) [Tocainide] | Base | 0.03 | 0.181 | 0.183 | 0.18 | – | 67.5 | 67.5 | 67.50 | 4.68 × 10^− 6 cm/s | 19 × 10^− 6 cm/s | 19 | – | – | – | –
3 | NS(=O)(=O)c1cc(C(=O)O)c(NCc2ccco2)cc1Cl [Furosemide] | – | – | – | – | – | – | – | – | – | – | – | – | up to 20 mL/ min | – | – | –
4 | NCC1(CC(=O)O)CCCCC1 [Gabapentin] | Zwitterion | – | 0.183 | 0.185 | 0.18 | – | 95.1 | 95.1 | 95.05 | – | – | – | – | 0.67 | – | –
5 | C[C@@H]1CN(c2c(F)c(N)c3c(=O)c(C(=O)O)cn(C4CC4)c3c2F)C[C@H](C)N1 [Sparfloxacin] | Zwitterion | – | 0.731 | 0.737 | 0.73 | 8.94 | 21.7 | 21.7 | 21.69 | 34.35 × 10^− 6 cm/s | 49.83 × 10^− 6 cm/s | 49.8 | – | – | 6.31 | –
6 | C[C@@H](c1ncncc1F)[C@](O)(Cn1cncn1)c1ccc(F)cc1F [Voriconazole] | Neutral | 1.7 | – | – | – | – | 1.57 | 1.6 | 1.57 | 134.68 × 10^− 6 cm/s | 96.51 × 10^− 6 cm/s | 96.5 | – | – | – | 1.7
7 | CCCNC(=O)NS(=O)(=O)c1ccc(Cl)cc1 [Chlorpropamide] | Acid | – | 0.907 | 0.915 | 0.91 | – | 0.56 | 0.6 | 0.56 | 111.60 × 10^− 6 cm/s | 88.1 × 10^− 6 cm/s | 88.1 | – | – | 4.69 | 0.56
